Experimental data published in US12318365B2, “Inhibition of dipeptide repeat proteins” (ALS Therapy Development Institute, priority 2019, dated 2025).
No end group written: not given here.

Tested on: NSC-34 cells
Test: Caspase-3 assay (apoptotic activity) in NSC-34 cells
Format: cell-based
Conditions: for DRP-induced apoptotic activity: DRP 0.01-3 μM, 24 h, compared to DMSO-treated controls
From the text: Caspase-3/CPP32 Assay: The caspase-3 assay is a fluorometric assay that measures apoptotic cell death. Apoptosis is a form of “programmed” cell death, in which a certain family of proteins inside the cell triggers a cascade of chemical reactions that result in the cell killing itself. One family of proteins involved in this process is the caspase protein family. Of the caspase proteins, caspase-2, 8, 9, and 10 are known as “initiators,” those that trigger the death cascade, and caspase-3, 6, and 7 are known as “executioners,” which carry out the actual killing of the cell. In a caspase-3 assay, cells treated with test compounds are lysed, and a substrate known as DEVD-AFC is added to the lysate. If active caspase-3 enzyme is present in the lysate, it will cleave AFC from the DEVD-AFC substrate, resulting in a fluorescent signal that can be quantified using a fluorescence microtiter plate reader. Thus, the apoptotic activity of cells treated with test compounds can be quantified. Greater fluorescence readings correspond to more apoptotic cell death.
Cells were plated in culture medium in 2 96-well plates at a density of 3.7×10^4 cells per well, and incubated overnight at 37° C., 5% CO2. The following day, immediately prior to addition of test compounds, existing culture medium was removed and replaced with staggered volumes of culture medium as in Example 1. A 10 mM stock of MS023 was thawed to room temperature and diluted as in Example 1. A 10 mM stock of GR15 (SEQ ID NO: 1) and a 10 mM stock of PR15 (SEQ ID NO: 2) were equilibrated to room temperature and diluted in warm culture medium to achieve a final concentration of 300 nM in wells.
The following conditions were plated in triplicate. Samples were surrounded by border wells on the outside of the plate filled with sterile Phosphate-buffered saline to prevent evaporation of volume in experimental wells during incubation; • Background (Culture medium only) • Untreated/“Cells Only” (Cells in culture medium) • DMSO Control (Cells treated only with the amount of DMSO that GR- and PR-treated cells were exposed to) • GR Only (Cells treated only with 300 nM GR15) (SEQ ID NO: 1) • Cells treated with […] GR15 (SEQ ID NO: 1) and one of the following doses of MS023: 60 μM, 30 μM, 10 μM, 3 μM, 1 μM. • PR Only (Cells treated only with 300 nM PR15) (SEQ ID NO: 2) • Cells treated with 300 nM PR15 (SEQ ID NO: 2) and one of the following doses of MS023: 60 μM, 30 μM, 10 μM, 3 μM, 1 μM. • Cells treated with only one of the following doses of MS023: 60 μM, 30 μM, 10 μM, 3 μM, 1 μM. • Positive controls (Cells treated with either 5 or 16 μM PAC-1 Caspase-3 activator)
Plates were incubated for 24 h at 37° C., 5% CO2. Cells were tested and data were analyzed using the procedure detailed in Caspase-3 assay kit instructions.
Cells were plated in culture medium in 2 96-well plates at a density of 3.7×10^4 cells per well, and incubated overnight at 37° C., 5% CO2. The following day, immediately prior to addition of test compounds, existing culture medium was removed and replaced with staggered volumes of culture medium as in Example 1. A 10 mM stock of MS023 was thawed to room temperature and diluted in warm culture medium to achieve final concentrations of 3, 1, 0.3, 0.1, 0.03, and 0.01 μM in plate. A 10 mM stock of GR15 (SEQ ID NO: 1) and a 10 mM stock of PR15 (SEQ ID NO: 2) were equilibrated to room temperature and diluted in warm culture medium to achieve a final concentration of 3 μM in wells.
The following conditions were plated in triplicate. […]

Molecule	DRP-induced apoptotic activity	dose dependence of abrogation of GR-induced apoptotic activity (300 nM GR15, 24 h, MS023 1-60 μM)	abrogation of GR-induced apoptotic activity (300 nM GR15, 24 h, doses 3 and 1 μM)	abrogation of GR-induced apoptotic activity (300 nM GR15, 24 h, doses 60, 30 and 10 μM)	dose dependence of abrogation of PR-induced apoptotic activity (300 nM PR15, 24 h, MS023 1-60 μM)	abrogation of PR-induced apoptotic activity (300 nM PR15, 24 h, all doses (1-60 μM))	dose dependence of abrogation of GR-induced apoptotic activity (3 μM GR15, 24 h, MS023 0.01-3 μM)	abrogation of GR-induced apoptotic activity (3 μM GR15, 24 h, all doses (0.01-3 μM))	abrogation of GR-induced apoptotic activity (3 μM GR15, 24 h, dose 3 μM)	dose dependence of abrogation of PR-induced apoptotic activity (3 μM PR15, 24 h, MS023 0.01-3 μM)	abrogation of PR-induced apoptotic activity (3 μM PR15, 24 h, all doses (0.01-3 μM))	abrogation of PR-induced apoptotic activity (3 μM PR15, 24 h, dose 3 μM)
PRPRPRPRPRPRPRPRPRPRPRPRPRPRPR [PR15]	producing the most significant amount of apoptotic activity											
CC(C)Oc1ccc(-c2c[nH]cc2CN(C)CCN)cc1 [MS023]		dose-dependently	fully abrogated	partially abrogated	dose-dependently	fully abrogated	dose-dependently abrogated	partially abrogated	fully abrogated	dose-dependently abrogated	partially abrogated	fully abrogated
GRGRGRGRGRGRGRGRGRGRGRGRGRGRGR [GR15]	producing the most significant amount of apoptotic activity											
